# Measurements: US20110144155A1, “8-HYDROXYQUINOLINE DERIVATIVES FOR THE TREATMENT OF HEMATOLOGICAL MALIGNANCIES” (priority 2008, published 2011)
# Experiments:
# [1] = system: LP-1 myeloma cells; assay: Cell viability MTS assay, LP1; format: cell-based; details: 72 hours
# Method: (§1) LP-1 myeloma cells, MDAY-D2 murine leukemia/lymphoma cells, and OCI-AML2 human leukemia cells and A549 lung cancer cells were treated with increasing concentrations of compounds 5AHQ, HNQ, BCQ, COQ, and DiiodoQ (Table 1). 72 hours after incubation, cell viability was determined by an MTS assay. […] . Given the effects on cultured cells, 5AHQ was evaluated in a mouse model of leukemia. K562 cells were injected subcutaneously into NOD SCID mice. […] .
# [2] = system: OCI-AML2 human leukemia cells; assay: Cell viability MTS assay, AML2; format: cell-based; details: 72 hours
# Method: as §1
# [3] = system: MDAY-D2 murine leukemia/lymphoma cells; assay: Cell viability MTS assay, MDAY-D2; format: cell-based; details: 72 hours
# Method: as §1
# [4] = system: A549 lung cancer cells; assay: Cell viability MTS assay, A549; format: cell-based; details: 72 hours
# Method: as §1
# [5] = Copper binding: stability constant and Cu:ligand ratio; format: physicochemical
# [6] = system: K562 human leukemia cells; assay: K562 leukemia xenograft in NOD/SCID mice; format: in vivo
# Method: Sublethally irradiated (3.54 Gy) NOD/SCID mice were injected subcutaneously with K562 human leukemia cells. One week later, mice were then treated daily by oral gavage with 5AHQ (50 mg/kg) in water. Three weeks after injection of cells, mice were sacrificed, the subcutaneous tumor excised, and the weight and volume of the tumor measured.
# (§2) Given the effects on leukemia and lymphoma cell lines and primary patient samples, the compounds were tested in a leukemia/lymphoma xenograft model. MDAY-D2 leukemia/lymphoma cells were injected intraperitoneally into DBA2 mice. Mice were then treated twice daily with oral clioquinol (100 mg/kg) for 10 days. Ten days after treatment, mice were sacrificed and the weight and volume of the intraperitoneal tumor was measured. […] Similar results were obtained with a K562 leukemia, MDAY-D2 leukemia/lymphoma and OCI AML2 human leukemia xenograft (FIG. 4) K562 leukemia, MDAY-D2 leukemia/lymphoma or OCI AML2 human leukemia cells were injected subcutaneous into sublethally irradiated NOD-Scid mice. Animals were subsequently treated with 5AHQ. The 5AHQ treatment was initiated when tumors reached volumes of 200 mm^3 at which time mice were randomized to receive 100 mg/kg of 5AHQ (treated group) or buffer control (untreated group) for 5 of 7 days. Caliper measurements were performed twice weekly to estimate tumor volume and differences compared between treated and untreated groups.
# LP-1 myeloma cells, MDAY-D2 murine leukemia/lymphoma cells, and OCI-AML2 human leukemia cells and A549 lung cancer cells were treated with increasing concentrations of compounds 5AHQ, HNQ, BCQ, COQ, and DiiodoQ (Table 1). 72 hours after incubation, cell viability was determined by an MTS assay. […]. Given the effects on cultured cells, 5AHQ was evaluated in a mouse model of leukemia. K562 cells were injected subcutaneously into NOD SCID mice. […].
# [7] = system: MDAY-D2 leukemia/lymphoma; assay: MDAY-D2 subcutaneous tumor in NOD-Scid mice; format: in vivo; details: 100 mg/kg for 5 of 7 days
# Method: as §2
# [8] = system: OCI AML2 human leukemia cells; assay: OCI AML2 xenograft in NOD-Scid mice; format: in vivo; details: OCI AML2 subcutaneous; 100 mg/kg for 5 of 7 days
# Method: as §2
# [9] = system: myeloma cell lines; assay: Cell viability panel, myeloma cell lines; details: read-out: IC50, induced cell death
# Method: (§3) Cells were cultured at 37° C. with 5% CO2 in a humid incubator.
# (§4) Cell viability was assessed with the CellTiter96® Aqueous Non-Radioactive Assay kit according to manufactures' instructions (Promega).
# (§5) The effects of clioquinol on the viability of acute leukemia/lymphoma (n=7), myeloma (n=14), and solid tumor (n=5) cell lines as well as primary AML samples (n=6) and primary normal hematopoietic cells (n=3) was tested.
# [10] = system: solid tumor cell lines; assay: Cell viability panel, solid tumor cell lines
# Method: as §3, §4, §5
# [11] = system: acute leukemia/lymphoma cell lines; assay: Cell viability panel, acute leukemia/lymphoma cell lines; details: read-out: IC50, induced cell death
# Method: as §3, §4, §5
# [12] = biological target: T1, 20S proteasome (Homo sapiens, UniProt P28074); assay: Proteasome activity (chymotrypsin-like, Suc-LLVY-AMC); format: biochemical
# T1 construct: Cellular proteins were extracted from cells with lysis buffer; endogenous in cells
# T1 sequence (P28074 60-263): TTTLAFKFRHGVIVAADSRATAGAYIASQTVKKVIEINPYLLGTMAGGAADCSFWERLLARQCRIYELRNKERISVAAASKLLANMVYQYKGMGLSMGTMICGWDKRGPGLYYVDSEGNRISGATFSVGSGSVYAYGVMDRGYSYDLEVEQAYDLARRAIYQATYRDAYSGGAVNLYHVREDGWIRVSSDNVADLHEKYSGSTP
# Method: Cellular proteins were extracted from cells with lysis buffer (50 mM HEPES pH 7.5, 150 mM NaCl, 2 mM ATP, and 1% Triton X-100). The chymotrypsin-like activity of the proteasome was measured by incubating equal amounts of protein with the preferential chymotrypsin-like substrate Suc-LLVY-AMC in assay buffer (50 mM Tris-HCl, pH 7.5, 150 mM NaCl) for two hours. After incubation, […] and the rate of free AMC was measured over time with a florescent spectrophotometric plate reader (excitation=380 nm, emission=460 nm).
# [13] = system: primary AML patient samples; assay: Cell viability, primary AML samples; format: cell-based; details: Homo sapiens; in 6/7 primary AML patient samples; forty-eight hours; read-out: IC50, induced cell death
# [14] = system: primary normal hematopoietic cells; assay: Cell viability, primary normal hematopoietic cells; format: cell-based; details: forty-eight hours
# [15] = system: cyclin D2 promoter; assay: High throughput screen for inhibitors of cyclin D2 transactivation (luciferase); format: cell-based, Mouse; details: NIH3T3 cells with c-maf; ~5 μM; sixteen hours
# From the text: The promoter of cyclin D2 (−894 to −4), containing c-maf responsive element sequence (MARE), was cloned from HeLa cell genomic DNA and subcloned into the pGL2 luciferase reporter vector (Promega, Madison, Wis.). This construct was co-transfected with pcDNA3.1 containing a neomycin resistance gene into NIH3T3 wild type cells and NIH3T3 cells stably over-expressing c-maf-IRES-GFP. Cells stably expressing c-maf, GFP, and luciferase were selected for further application.
# NIH3T3 cells stably expressing c-maf and the cyclin D2 promoter driving luciferase (13,000 cells per well) were plated in 96-well plates by the Biomek FX liquid handler (Beckman, Fullerton, Calif.). The same workstation was used for plate formatting and reagent distribution. […] After incubation, cyclin D2 transactivation was assessed by the luciferase assay and viability was assessed by the MTS assay.
# Luciferase activity was assessed according to the manufacturer's instructions (Promega, Madison, Wis.). […] After 10 min incubation, an equal volume of Bright-Glo Luciferase substrate (Promega) was added and the luminescence signal was detected with a 96-well Luminoskan luminescence plate reader (Thermo Labsystem, Waltham, Mass.) with a 5 second integration. […]
# [16] = system: p21 and p27; assay: p21 and p27 expression in myeloma and leukemia cells; format: cell-based; details: low micromolar concentrations
# Method: To prepare cytosolic extracts, NIH3T3 cells and myeloma cells were washed with phosphate-buffered saline (PBS, pH 7.4) and suspending in lysis buffer [10 mM Tris (pH 7.4), 150 mM NaCl, 0.1% Triton X-100, 0.5% sodium deoxycholate, and 5 mM EDTA] containing protease inhibitors (Complete tablets, Roche, Indianapolis, Ind.). Protein concentrations were determined by the Bradford assay. Immunoblot assays were performed by subjecting equal amounts of protein to SDS-PAGE gels followed by transfer to Nitrocellulose membranes. Membranes were probed with polyclonal rabbit anti-human cyclin D2 (0.5 μg/ml, both from Santa Cruz Biotech, Santa Cruz, Calif.), or monoclonal mouse-anti human p21 (1:200 v/v, Santa Cruz Biotech), monoclonal mouse-anti human p27 (1:2,500 v/v BD Transduction Laboratories), polyclonal mouse-anti human ubiquitin (1:2,000 v/v Calbiochem) and monoclonal mouse-anti-β-actin (1:10,000 v/v) (Sigma, St. Lois, Mo.). […] Detection was performed by the Enhanced Chemical Luminescence (ECL) method (Pierce, Rockford, Ill.).
# Cyclin D2 is over-expressed in multiple myeloma (MM) and a subset of high-risk patients with acute myeloid leukemia (AML), contributing to their pathogenesis and chemoresistance (17, 18) (19). […] Sixteen hours after the addition of the compounds, luciferase expression was measured as a marker of cyclin D2 transactivation. […]
# [17] = system: myeloma and leukemia cells; assay: Cell cycle analysis; format: cell-based; details: low micromolar concentrations
# Method: Cells were harvested, washed with cold PBS, suspended in 70% cold ethanol and incubated overnight at −20° C. Cells were then treated with 100 ng/ml of DNase-free RNase (InvitroGen) at 37° C. for 30 min, washed with cold PBS, and resuspended in PBS with 50 μg/ml of propidium iodine. DNA content was analyzed by flow cytometry (FACSCalibur, Becton Dickinson, Florida, USA). The percentage of cells in each phase of the cell cycle was calculated with ModiFit software (Becton Dickinson).
# Cyclin D2 is over-expressed in multiple myeloma (MM) and a subset of high-risk patients with acute myeloid leukemia (AML), contributing to their pathogenesis and chemoresistance (17, 18) (19). One of the regulators of cyclin D2 is the oncogene c-maf that is also frequently over-expressed in MM (27). Therefore, it was sought to identify c-maf dependent and independent inhibitors of cyclin D2. To identify such small molecule inhibitors, a high throughput chemical genomics screen was developed. […] Sixteen hours after the addition of the compounds, luciferase expression was measured as a marker of cyclin D2 transactivation. […]
# [18] = system: MDAY-D2 leukemia/lymphoma cells; format: in vivo, mice; details: oral 100 mg/kg twice daily, 10 days
# Method: DBA-2 mice were injected intraperitoneally with MDAY-D2 murine leukemia cells. Mice were then treated twice daily by oral gavage with clioquinol (100 mg/kg) dissolved in intralipid or intralipid control. Ten days after treatment, mice were sacrificed, the intraperitoneal tumor excised, and the weight and volume of the tumor measured.
# as §2, with “Caliper measurements were performed twice weekly to estimate tumor volume and differences compared between treated and untreated groups.” left out
# [19] = after oral administration, patients; cited from earlier work
# [20] = biological target: T2, proteasome (Homo sapiens, UniProt P28074); assay: Proteasome inhibition in cells; details: resistant cells (for clioquinol including normal hematopoietic cells)
# T2 sequence (P28074 60-263): T1 sequence (P28074 60-263)
# Method: Cellular proteins were extracted from cells with lysis buffer (50 mM HEPES pH 7.5, 150 mM NaCl, 2 mM ATP, and 1% Triton X-100). The chymotrypsin-like activity of the proteasome was measured by incubating equal amounts of protein with the preferential chymotrypsin-like substrate Suc-LLVY-AMC in assay buffer (50 mM Tris-HCl, pH 7.5, 150 mM NaCl) for two hours. After incubation, was added and the rate of free AMC was measured over time with a florescent spectrophotometric plate reader (excitation=380 nm, emission=460 nm).
SMILES,"LD50 whole cell, LP1 [1] [μm]","LD50 whole cell, AML2 [2] [μm]","LD50 whole cell, MDAY-D2 [3] [μm]","LD50 whole cell, A549 [4] [μm]",K (stability) [5],IC50 [9] [µM],IC50 [11] [µM],IC50 [12] [µM],other results
"Nc1ccc(O)c2ncccc12 [5AHQ, 5-amino-8-hydroxyquinoline]",12.5,3.9,7.8,31.25,9.84,< 15,< 15,,"tumor weight and volume ([6]; 50 mg/kg in water, oral gavage, three weeks after injection of cells): reduced tumor weight and volume; tumor growth (volume) ([6]; K562 subcutaneous, 100 mg/kg for 5 of 7 days): delayed tumor growth; efficacy dose in mice xenografts ([6]; mouse, in vivo): 50 mg/kg/day; toxicity ([6]; mouse, in vivo): No significant toxicity; tumor growth (volume) [7]: delayed tumor growth; tumor growth (volume) [8]: delayed tumor growth; IC50 ([10]; read-out: IC50, induced cell death): < 15 µM"
"Oc1c(Br)cc(Cl)c2cccnc12 [BCQ, 7-bromo-5-chloro-8-hydroxyquinoline]",31.25,,,,10.24,,,15.6,
"Oc1ccc(Cl)c2cccnc12 [COQ, 5-chloro-8-hydroxyquinoline]",31.25,3.9,3.9,62.5,8.89,,,62.5,
"Oc1c(I)cc(Cl)c2cccnc12 [Clioquinol, 5-chloro-7-iodo-8-hydroxyquinoline, reference compound]",31.25,3.9,15.6,250,9.06,< 20,< 20,12.5,"IC50 [13]: < 20 µM; samples with induced cell death at IC50<20 μM [14]: 0/3; inhibition of cyclin D2 promoter (luciferase) [15]: c-maf independent inhibitors of the cyclin D2 promoter; p21 and p27 expression [16]: increased expression of p21 and p27; cell cycle effect [17]: arrested cells in the G1 phase; tumor progression [18]: delayed tumor progression; trough serum concentration [19]: 20 µM; proteasomal inhibition in compound-resistant cells [20]: no proteasomal inhibition was detected; cell lines with induced cell death at IC50<20 μM ([10]; solid tumor, forty-eight hours): 0/5"
"Oc1c(I)cc(I)c2cccnc12 [DiiodoQ, reference compound]",,62.5,31.25,250,,,,> 1000,
"O=[N+]([O-])c1ccc(O)c2ncccc12 [HNQ, 8-hydroxy-5-nitroquinoline]",15.6,,,,9.13,,,15.6,
